{"source": "paper PMC7471466", "about": "(Acta Pharmacologica Sinica, 2020)", "key": {"[1]": {"conditions": "patients, high dose (>50 mg MTX/kg) therapy regimens; cited from earlier work"}, "[2]": {"test_system": "AOX", "experiment": "AOX activity in rat hepatocytes, 7-OH MTX formation from probe substrate MTX", "format": "cell-based", "conditions": "for increase in 7-OH MTX yield vs control: then MTX 50 μM"}, "[3]": {"test_system": "AOX", "format": "cell-based, human", "conditions": "for increase in 7-OH MTX yields vs control: human hepatocytes"}, "[4]": {"test_system": "AOX1", "conditions": "rat hepatocytes, 0–20 μM NIM for 24 h, concentration-dependent"}, "[5]": {"test_system": "AOX3", "conditions": "rat hepatocytes, 0–20 μM NIM for 24 h, concentration-dependent"}, "[6]": {"test_system": "AOX1 mRNA", "conditions": "rat hepatocytes, 0–20 μM NIM for 24 h"}, "[7]": {"test_system": "AOX3 mRNA", "conditions": "rat hepatocytes, 0–20 μM NIM for 24 h"}, "[8]": {"test_system": "AOX"}, "[9]": {"test_system": "AOX1", "conditions": "rat livers, 20, 50, 100 mg·kg−1·d−1 NIM for 5 days, dose-dependent"}, "[10]": {"test_system": "AOX3", "conditions": "rat livers, 20, 50, 100 mg·kg−1·d−1 NIM for 5 days, dose-dependent"}, "[11]": {"test_system": "AOX3 mRNA", "conditions": "rat livers, 20, 50, 100 mg·kg−1·d−1 NIM for 5 days"}, "[12]": {"test_system": "AOX", "conditions": "NIM 5–20 μM directly added to the RLC incubation of MTX"}, "[13]": {"test_system": "sandwich-cultured rat hepatocytes", "conditions": "concentration-dependent"}, "[14]": {"test_system": "rat hepatocytes", "conditions": "read-out: IC50 (toxic to hepatocytes); cited from earlier work"}, "[15]": {"test_system": "human hepatocytes", "conditions": "read-out: IC50 (toxic to hepatocytes); cited from earlier work"}, "[16]": {"test_system": "OATPs", "conditions": "cited from earlier work"}, "[17]": {"test_system": "MRP2", "conditions": "cited from earlier work"}, "[18]": {"conditions": "NIM-treated rats, 100 mg·kg−1·d−1, 5 days, vs nontreated rats"}}, "note": "Read-outs that look alike come from different tables or passages of the source."}
{"smiles": "CN(Cc1cnc2nc(N)nc(N)c2n1)c1ccc(C(=O)N[C@@H](CCC(=O)O)C(=O)O)cc1", "note": "[MTX, methotrexate]", "values": [{"measurement": "MTX excreted as 7-OH MTX", "setting": "[1]", "result": "≤ 33", "unit": "%"}]}
{"smiles": "CS(=O)(=O)Nc1ccc([N+](=O)[O-])cc1Oc1ccccc1", "note": "[NIM, nimesulide]", "values": [{"measurement": "increase in 7-OH MTX yields vs control", "setting": "[2]; 5 μM NIM for 24 h", "result": 1.3, "unit": "fold"}, {"measurement": "increase in 7-OH MTX yields vs control", "setting": "[2]; 10 μM NIM for 24 h", "result": 1.8, "unit": "fold"}, {"measurement": "increase in 7-OH MTX yield vs control", "setting": "[2]; 20 μM NIM for 12 h", "result": 1.7, "unit": "fold"}, {"measurement": "increase in 7-OH MTX yields vs control", "setting": "[2]; 20 μM NIM for 24 h (concentration experiment)", "result": 3.1, "unit": "fold"}, {"measurement": "increase in 7-OH MTX yield vs control", "setting": "[2]; 20 μM NIM for 24 h (induction time experiment)", "result": 2.5, "unit": "fold"}, {"measurement": "increase in 7-OH MTX yield vs control", "setting": "[2]; 20 μM NIM for 48 h", "result": 2.7, "unit": "fold"}, {"measurement": "increase in 7-OH MTX yield vs control", "setting": "[2]; 20 μM NIM for 72 h", "result": 2.7, "unit": "fold"}, {"measurement": "increase in 7-OH MTX yields vs control", "setting": "[3]; 10 μM NIM for 24 h", "result": 1.3, "unit": "fold"}, {"measurement": "increase in 7-OH MTX yields vs control", "setting": "[3]; 50 μM NIM for 24 h", "result": 1.7, "unit": "fold"}, {"measurement": "increase in 7-OH MTX yields vs control", "setting": "[3]; 100 μM NIM for 24 h", "result": 2.0, "unit": "fold"}, {"measurement": "increase in 7-OH MTX formation", "setting": "[3]; primary human hepatocytes, NIM (20 μM) for 24 h", "result": 2.0, "unit": "fold"}, {"measurement": "AOX1 protein level", "setting": "[4]", "result": "increased"}, {"measurement": "AOX3 protein level", "setting": "[5]", "result": "decreased"}, {"measurement": "AOX1 mRNA level", "setting": "[6]", "result": "did not alter"}, {"measurement": "AOX3 mRNA level", "setting": "[7]", "result": "did not alter"}, {"measurement": "increase in accumulated excretion of 7-OH MTX in 0–24 h feces", "setting": "male, Wistar, rat, feces, oral", "result": 2.1, "unit": "fold"}, {"measurement": "increase in accumulated excretion of 7-OH MTX in 0–24 h urine", "setting": "male, Wistar, rat, urine, oral", "result": 5.2, "unit": "fold"}, {"measurement": "increase in accumulated excretion of MTX in 0–24 h urine", "setting": "male, Wistar, rat, urine, oral", "result": 1.8, "unit": "fold"}, {"measurement": "accumulated excretion of MTX in 0–24 h feces", "setting": "rats, 100 mg·kg−1·d−1 NIM for 5 days, then oral MTX 50 mg/kg", "result": "no significant change"}, {"measurement": "increase in AOX-mediated metabolite from JNJ-38877605 in liver cytosol", "setting": "[8]; [18]", "result": 3.8, "unit": "fold"}, {"measurement": "increase in AOX-mediated metabolite from SGX523 in liver cytosol", "setting": "[8]; [18]", "result": 3.4, "unit": "fold"}, {"measurement": "increase in AOX-mediated metabolite from phthalazine in liver cytosol", "setting": "[8]; [18]", "result": 2.5, "unit": "fold"}, {"measurement": "increase in 7-OH MTX formation in liver cytosol vs vehicle", "setting": "[8]; rats pretreated with 20 mg·kg−1·d−1 NIM for 5 days", "result": 1.9, "unit": "fold"}, {"measurement": "increase in 7-OH MTX formation in liver cytosol vs vehicle", "setting": "[8]; rats pretreated with 50 mg·kg−1·d−1 NIM for 5 days", "result": 3.2, "unit": "fold"}, {"measurement": "increase in 7-OH MTX formation in liver cytosol vs vehicle", "setting": "[8]; rats pretreated with 100 mg·kg−1·d−1 NIM for 1 day", "result": 1.0, "unit": "fold"}, {"measurement": "increase in 7-OH MTX formation in liver cytosol vs vehicle", "setting": "[8]; rats pretreated with 100 mg·kg−1·d−1 NIM for 3 days", "result": 2.0, "unit": "fold"}, {"measurement": "increase in 7-OH MTX formation in liver cytosol vs vehicle", "setting": "[8]; rats pretreated with 100 mg·kg−1·d−1 NIM for 5 days (dose experiment)", "result": 3.7, "unit": "fold"}, {"measurement": "increase in 7-OH MTX formation in liver cytosol vs vehicle", "setting": "[8]; rats pretreated with 100 mg·kg−1·d−1 NIM for 5 days (time experiment)", "result": 3.8, "unit": "fold"}, {"measurement": "AOX1 protein level", "setting": "[9]", "result": "increased"}, {"measurement": "AOX3 protein level", "setting": "[10]", "result": "decreased"}, {"measurement": "AOX3 mRNA level", "setting": "[11]", "result": "no significant alteration"}, {"measurement": "7-OH MTX formation vs incubation containing no NIM", "setting": "[12]", "result": "no significant difference"}, {"measurement": "cellular plus biliary accumulation of MTX", "setting": "[13]", "result": "reduced"}, {"measurement": "IC50", "setting": "[14]", "result": 40, "unit": "µM"}, {"measurement": "IC50", "setting": "[15]", "result": 213, "unit": "µM"}, {"measurement": "inhibition of OATPs", "setting": "[16]", "result": "inhibitor"}, {"measurement": "inhibition of MRP2", "setting": "[17]", "result": "inhibitor"}]}
